Reference: PMC4992173, “Divergent synthesis and identification of the cellular targets of deoxyelephantopins” (Nature Communications, 2016)

Assays:
[1] = test system: proteins enriched from MCF7 cells by probe 24c; assay: SILAC competitive profiling with probe 24c in MCF7 lysates, proteome-wide; type: binding, human; conditions: 20 μM deoxyelephantopin, 10 μM 24c, SILAC ratio<0.30
Excerpt: In our efforts to determine the direct molecular targets of deoxyelephantopin we first performed a gel-based competitive in situ proteomic profiling assay[41] […] While the greater conformational flexibility of probe 24c could potentially lead to more promiscuous target engagement relatively to deoxyelephantopin, it was favoured based on the fact that an alkyne moiety appended to the rigid scaffold of deoxyelephantopin may hinder some of its interactions. MCF7 cells were pretreated with various concentrations of deoxyelephantopin for 4 h, harvested, lysed and the lysates were treated with the fluorogenic probe 24c-Cy3 (10 μM; Supplementary Fig. 10). […] Furthermore, cells were pretreated with 20 μM concentration of deoxyelephantopin or 24c and the proteomic profiles were compared (Fig. 6b, Supplementary Fig. 11). Multiple bands were detected that were equally competed by both DEP and 24c, thus again confirming that 24c can be used as an acceptable clickable analogue of deoxyelephantopin in pulldown assays. Having established the optimal labelling conditions by SDS–PAGE, we next carried out a mass spectrometry-based competitive profiling assay[42] coupled with the method of stable isotope labelling of amino acids in culture (SILAC)[43]. […]
visualization were performed as described above. Images were quantified with ImageJ and kinetics values were calculated using GraphPad Prism (V6.03). […]

[2] = Cell viability in MCF7 cells, compounds at 1 μM for 3 days; type: cell-based; conditions: human, 1 μM concentration, read-out: cellular viability
Protocol: We began our biological investigations by assaying the cytotoxicity of natural deoxyelephantopin (DEP) and its unnatural analogues in four different cancer cell lines (Fig. 5a, Supplementary Figs 6–8).
Supplementary figure 8: Cell viability measurements in MCF7 cells. All compounds were tested at 1 μM concentration for 3 days (values±SD are shown; n = 3).
Supplementary figure 9: Propidium iodide and DAPI staining of MCF7 cells treated with either DMSO, 10% ethanol (necrosis positive control) or 20 µM DEP for 8 h. Scale bar […]
Biological materials. All materials were purchased from Sigma Aldrich unless otherwise stated. DMEM/High glucose media, phosphate buffered saline (PBS), MEM Non-Essential Amino Acids, Penicillin-Streptomycin (Pen/Strep) and Trypsin-EDTA were obtained from Life Technologies. Protein concentration was determined using the Bradford assay (Bio-Rad).
Cell culture and preparation of lysates. […] Cells were lysed by sonication to form cell lysates and protein concentration was determined using the Bradford […]
’ cells/mL and HeLa: 1 ’ cells/mL) in a 96-well plate and allowed to attach overnight. […] Cells were imaged using a SpectraMax i3 plate reader equipped with a SpectraMax MiniMax imaging cytometer (Molecular Devices). […]
Caspase activity labeling for fluorescence cell imaging. […]

In the case of `C=C(C)C(=O)O[C@H]1CC2=C[C@@H](C/C(C)=C/[C@H]3OC(=O)C(=C)[C@H]13)OC2=O` [deoxyelephantopin], the “competition of probe 24c labelling (11 proteins)” value [1] is reported as greater than 70% and the viability at 3 days, 1 µM [2] is reported as less than 30%.
